Like-named read-outs stand apart in the source and are kept apart here.

The test system of assay [1] is S. mobaraensis enzyme. The assay is described as follows: Hydrolysis activity on Nε-acyl-L-lysines with various acyl groups, S. mobaraensis enzyme. Format: biochemical, Streptomyces mobaraensis. The conditions noted are these: for Specific activity, S. mobaraensis enzyme: 1-hour reaction, 50 mM Tris-HCl buffer pH 8.2, 37° C. As to the method: (§1) The reactivity of the enzyme of the present invention on various N-acetyl-L-amino acids (final concentration 4 mM) was studied to investigate substrate specificity. In Tables 4 and 5 below, the amount (micro mole) of substrate (acetyl-L-amino acid) hydrolyzed per 1 mg of enzyme protein in a 1-hour reaction in 50 mM Tris-HCl buffer (pH 8.2) at 37° C. is given as specific activity.
(§2) Substrate specificity was investigated based on hydrolysis activity on Nε-acyl-L-lysines with various acyl groups.

The subject of assay [2] is A. pestifer enzyme. The settings on record: values marked * from Chibata et al. (1970); cited from earlier work.
In assay [3] the test system is aminoacylase of the present invention (Nε-acyl-L-lysine-specific aminoacylase). The assay can be described thus: Effect of various inhibitors on the hydrolyzing activity of the aminoacylase. Format: biochemical, Streptomyces mobaraensis. The settings on record: hydrolysis activity where nothing was added = 100. As to the method:
The activity of the enzyme of the present invention can be measured based on a method of measuring Nε-acetyl-L-lysine hydrolysis activity. For example, the activity of the enzyme of the present invention may be measured by incubating the enzyme with a defined concentration of Nε-acetyl-L-lysine as a substrate for 30 minutes at 37° C. (50 mM Tris-HCl buffer, pH 8.0), and assaying the released L-lysine. 1 U (unit) of the enzyme of the present invention is defined as the amount of the enzyme required to hydrolyze 1 micromole of Nε-acetyl-L-lysine per hour when incubated for 30 minutes at 37° C. (50 mM Tris-HCl buffer, pH 8.0) with 4 mM Nε-acetyl-L-lysine as the substrate, and the released L-lysine was assayed by the acidic ninhydrin method.
The activity of the enzyme of the present invention was measured by incubating the enzyme (50 mM Tris-HCl buffer, pH 8.0) for 30 minutes at 37° C. with a defined concentration of Nε-acetyl-L-lysine as the substrate, and assaying the released L-lysine. 1 U (unit) of the enzyme of the present invention is defined as the amount of the enzyme required to hydrolyze 1 micromole of Nε-acetyl-L-lysine per hour at 37° C. for 30 minutes in 50 mM Tris-HCl buffer, pH 8.0 with 4 mM of Nε-acetyl-L-lysine as the substrate, and the released L-lysine was assayed by acidic ninhydrin method.
The effects of various inhibitors on hydrolysis activity were compared by the measurement methods described above using a purified enzyme obtained as in Example 2. In Table 2, the enzyme activity is presented as a relative value (%) given 100 as hydrolysis activity where nothing was added.

Assay [4] has the same test system. The assay can be described thus: Effects of metal ions on hydrolysis activity of enzyme dialyzed against 0-phenanthroline solution. It counts as biochemical, Streptomyces mobaraensis. The settings on record: final concentration 0.1 mM.
The test system of assay [5] is A. pestifer enzyme. The assay is described as follows: Hydrolysis activity on Nε-acyl-L-lysines with various acyl groups, A. pestifer enzyme. Format: biochemical, Achromobacter pestifer.
Excerpt: as §2

Assay [6] concerns enzyme of the present invention (aminoacylase). The assay is described as follows: Reactivity of the enzyme on various N-acetyl-L-amino acids (substrate specificity). Format: biochemical, Streptomyces mobaraensis. The conditions noted are these: for Specific activity (relative activity): relative to Nε-acetyl-L-Lys = 100%; for Specific activity: 1-hour reaction, 50 mM Tris-HCl buffer pH 8.2, 37° C., ND: below detection limit. The protocol: as §1

[7] abbreviates: hydrolysis activity with nothing added = 100.

On to `N[C@@H](CCCCNC(=O)c1ccccc1)C(=O)O` [Nε-benzoyl-L-Lys], for which the “Specific activity, S. mobaraensis enzyme” value in assay [1] is 1,380 μmol/mg. Further, the “Specific activity, A. pestifer enzyme” value in assay [2] was 15,000* μmol/mg.
For the compound `N[C@@H](CS)C(=O)O` [L-cysteine], in assay [3] (added concentration 1 mM), the “Relative activity (%)” value was found to be 77.6%.
As for `[Ca+2].[Cl-].[Cl-]` [CaCl2], in assay [4] (setting [7]), the “Relative activity (%)” value is recorded as 110.3%.
For the compound `[Cl-].[Cl-].[Co+2]` [CoCl2], the “Relative activity (%)” value in assay [4] is given as 140.8%.
On to `CCCCCCCCCCCC(=O)NCCCC[C@H](N)C(=O)O` [Nε-lauroyl-L-Lys], for which, in assay [1], the “Specific activity, S. mobaraensis enzyme” value came out at 28 µmol/mg. The “hydrolysis activity of the enzyme from A. pestifer (in words)” value in assay [5] was “very little hydrolysis activity”. Further, the “Specific activity, A. pestifer enzyme” value in assay [5] (value without literature mark) turned out to be 0.4 µmol/mg.
On to `O=S(=O)([O-])[O-].[Zn+2]` [ZnSO4], for which the “Relative activity (%)” value in assay [4] (setting [7]) was determined as 103.3%.
For `OCCS` [β-mercaptoethanol], the “Relative activity (%)” value in assay [3] (added concentration 10 mM) is on record as 87.5%.
Turning to `O=S(=O)([O-])[O-].[Cu+2]` [CuSO4], in assay [4] (setting [7]), the “Relative activity (%)” value worked out at 67.2%.
With `[Cl-].[K+]` [KCl], the “Relative activity (%)” value in assay [4] (setting [7]) came out at 110.2%.
With `N[C@@H](CCCCNC(=O)CCl)C(=O)O` [Nε-chloroacetyl-L-lys], in assay [1], the “Specific activity, S. mobaraensis enzyme” value is 1,030 μmol/mg. Moreover, the “Specific activity, A. pestifer enzyme” value in assay [2] is given as 5,300* μmol/mg.
On to `O=C(O)CN(CCN(CC(=O)O)CC(=O)O)CC(=O)O` [EDTA], for which the “Relative activity (%)” value in assay [3] (added concentration 1 mM) is 74.6%.
On to `CC(=O)N[C@@H](CCCCN)C(=O)O` [Nα-acetyl-L-Lys], for which the “Specific activity (relative activity)” value in assay [6] turned out to be 2.1%. Also, in assay [6] (substrate 4 mM), the “Specific activity” value worked out at 70 µmol/mg.
Take `CC(=O)NCCCC[C@H](N)C(=O)O` [Nε-acetyl-L-Lys]: the “Specific activity (relative activity)” value in assay [6] is on record as 100%. Moreover, in assay [6] (substrate 4 mM), the “hydrolysis activity on N-acetyl-L-amino acids (in words)” value is “strong hydrolysis activity” and the “Specific activity” value was 3370 µmol/mg. Also, the “Specific activity, S. mobaraensis enzyme” value in assay [1] is 3,370 μmol/mg. The “Specific activity, A. pestifer enzyme” value in assay [2] was 2,700* μmol/mg.
As to `O=S(=O)([O-])[O-].[Fe+2]` [FeSO4], the “Relative activity (%)” value in assay [4] (setting [7]) was determined as 85.3%.
Take `O=C(O)c1cc[c]([Hg][Cl])cc1` [PCMB]: the “Relative activity (%)” value in assay [3] (added concentration 1 mM) is recorded as 86.1%.
The same measure, in the same setting: the result for `N[C@@H](CCC(=O)N[C@@H](CS)C(=O)NCC(=O)O)C(=O)O` [GSH] reads 80.0%.
As to `O=S(=O)([O-])[O-].[Mg+2]` [MgSO4], the “Relative activity (%)” value in assay [4] (setting [7]) stood at 121.1%.
As for `CCCCCCCCCCCC(=O)N[C@@H](CCCCN)C(=O)O` [Nα-lauroyl-L-Lys], in assay [1], the “hydrolysis activity of the enzyme of the present invention (in words)” value is on record as “no hydrolysis activity” and the “Specific activity, S. mobaraensis enzyme” value is 0 µmol/mg.
As to `NC(=O)CI` [Iodoacetamide], the “Relative activity (%)” value in assay [3] (added concentration 1 mM) amounted to 83.1%.
Regarding `O[C@@H](CS)[C@@H](O)CS` [DTT], the “Relative activity (%)” value in assay [3] (added concentration 1 mM) was 64.7%.
As for `O=S(=O)([O-])[O-].[Mn+2]` [MnSO4], in assay [4] (setting [7]), the “Relative activity (%)” value came to 114.1%.
With `c1cnc2c(c1)ccc1cccnc12` [0-phenanthroline], in assay [3] (added concentration 1 mM), the “Relative activity (%)” value turned out to be 10.3%.
For `CCCCCCCC(=O)NCCCC[C@H](N)C(=O)O` [Nε-octanoyl-L-Lys], the “Specific activity, S. mobaraensis enzyme” value in assay [1] worked out at 570 µmol/mg. The “Specific activity, A. pestifer enzyme” value in assay [2] is 12,500* μmol/mg.

Values taken from patent US7888079B2, “Nε-acyl-L-lysine-specific aminoacylase” (Ajinomoto Co., Inc., priority 2005, dated 2011).
